Earlier results on 1 compound are cited in patent publication US20210169807A1, “PHARMACEUTICAL COMPOSITION COMPRISING AN ATYPICAL ANTIPSYCHOTIC AGENT AND METHOD FOR THE PREPARATION THEREOF” (priority 2018, published 2021).

The structures appear in SMILES notation. Read-outs that look alike come from different tables or passages of the source.

For the compound `Cc1nc2n(c(=O)c1CCN1CCC(c3noc4cc(F)ccc34)CC1)CCCC2O` (stereo not drawn) [Paliperidone, 3-[2-[4-(6-fluoro-1,2-benzisoxazol-3-yl)-1-piperidinyl]ethyl]-6,7,8,9-tetrahydro-9-hydroxy-2-methyl-4H-pyrido[1,2-a]pyrimidin-4-one], the solubility result by setting is: (in 0.1N HCl) “slightly soluble”; (in dichloromethane) “sparingly soluble”; (in water) “insoluble”.
